Experimental data published in ChEMBL document CHEMBL1135625, “Synthesis and antiinflammatory evaluation of 9-anilinoacridine and 9-phenoxyacridine derivatives” (J Med Chem, 2002).
pIC50: −log10 of the molar value.

Key:
[1] = organism: Rattus norvegicus; test: % inhibition against mast cell degranulation by measuring the content of beta-glucuronidase in the supernatant; format: functional; set-up: concentration or dose not given beside the values
[2] = organism: Rattus norvegicus; test: % inhibition against mast cell degranulation by measuring the content of histamine in the supernatant; format: functional; set-up: concentration or dose not given beside the values
[3] = organism: Rattus norvegicus; test: Inhibitory activity against mast cell degranulation by measuring the content of beta-glucuronidase in the supernatant; format: functional
[4] = organism: Rattus norvegicus; test: Inhibitory activity against mast cell degranulation by measuring the content of histamine in the supernatant; format: functional
[5] = test system: N9; test: (§1) Inhibitory activity against TNF-alpha release in N9 cells in the supernatant; format: functional, cell-based, Mus musculus
[6] = organism: Rattus norvegicus; test: Inhibitory activity against neutrophil degranulation by measuring the content of beta-glucuronidase in the supernatant; format: functional
[7] = organism: Rattus norvegicus; test: Inhibitory activity against neutrophil degranulation by measuring the content of lysozyme in the supernatant; format: functional
[8] = organism: Rattus norvegicus; test: % inhibition against neutrophil degranulation by measuring the content of beta-glucuronidase in the supernatant; format: functional; set-up: concentration or dose not given beside the values
[9] = organism: Rattus norvegicus; test: % inhibition against neutrophil degranulation by measuring the content of lysozyme in the supernatant; format: functional; set-up: concentration or dose not given beside the values
[10] = test system: RAW264.7; test: (§2) Inhibitory activity against TNF-alpha release in RAW 264.7 cells in the supernatant; format: functional, cell-based; settings: Mus musculus
[11] = test system: RAW264.7; test: % inhibition against TNF-alpha release in RAW 264.7 cells in the supernatant; format: functional, Mus musculus; set-up: concentration or dose not given beside the values
[12] = test system: N9; test: % inhibition against TNF-alpha release in N9 cells in the supernatant; format: functional, Mus musculus; set-up: concentration or dose not given beside the values
[13] = organism: Rattus norvegicus; test: % inhibition against mast cell degranulation by measuring the content of beta-glucuronidase in the supernatant; settings: concentration not given here
[14] = test system: N9; test: 50% inhibition against TNF-alpha release in N9 cells in the supernatant; format: functional, cell-based; settings: Mus musculus
[15] = test system: RAW264.7; test: 50% inhibition against TNF-alpha release in RAW 264.7 cells in the supernatant; format: functional, cell-based; settings: Mus musculus
[16] = organism: Rattus norvegicus; test: 50% inhibition against mast cell degranulation by measuring the content of beta-glucuronidase in the supernatant; format: functional
[17] = test system: N9; test: as §1; format: functional, Mus musculus
[18] = test system: RAW264.7; test: as §2; format: functional, Mus musculus

Compound | Inhibition [1] [%] | Inhibition [2] [%] | pIC50 [3] | pIC50 [4] | pIC50 [5] | pIC50 [6] | pIC50 [7] | Inhibition [8] [%] | Inhibition [9] [%] | pIC50 [10] | Inhibition [11] [%] | Inhibition [12] [%] | inhibition [13] [%] | pIC50 [14] | pIC50 [15] | pIC50 [16] | Inhibition [17] [%] | Inhibition [18] [%]
CC(=O)/C=C/c1ccc(Oc2c3ccccc3nc3ccccc23)cc1 | 7.7 | -10.5 | < 4.52 | < 4.52 | 5.06 | < 4.52 | < 4.52 | 32.4 | 10.3 | < 4.52 | -15.7 | – | – | – | – | – | – | –
COc1ccc2nc3cc(Cl)ccc3c(Oc3ccc(C(C)=O)cc3)c2c1 | 26.4 | 7.2 | < 4.52 | < 4.52 | < 5.00 | < 4.52 | < 4.52 | 10.4 | -12.8 | < 4.52 | 33.1 | 45.9 | – | – | – | – | – | –
CC(=O)c1ccc(Oc2c3ccccc3nc3ccccc23)cc1 | 44.6 | 43.8 | < 4.52 | < 4.52 | < 5.52 | < 4.52 | 4.73 | 42 | – | < 4.52 | 45.6 | 23.9 | – | – | – | – | – | –
COc1ccc2nc3ccccc3c(Oc3ccc(C(C)=O)cc3)c2c1 | – | 9.4 | < 4.52 | < 4.52 | < 5.52 | 4.89 | 4.74 | – | – | 4.71 | – | 36.1 | 25 | – | – | – | – | –
C/C(=N\O)c1ccc(Nc2c3ccccc3nc3ccccc23)cc1 | 29.5 | 23.3 | < 4.52 | < 4.52 | – | 5.36 | 5.09 | – | – | – | 44.9 | 40.1 | – | < 5.52 | < 5.00 | – | – | –
CC(=O)c1ccc(Oc2c3ccccc3nc3ccc(Cl)cc23)cc1 | 29.4 | 14.4 | < 4.52 | < 4.52 | < 4.52 | < 4.52 | < 4.52 | 14.8 | -16.4 | < 4.52 | 4.6 | 12.3 | – | – | – | – | – | –
CN1CCN(CCCN2c3ccccc3Sc3ccc(C(F)(F)F)cc32)CC1 [TRIFLUOPERAZINE] | – | – | 4.89 | 5.00 | – | – | – | – | – | – | – | – | – | – | – | – | – | –
CO/N=C(\C)c1ccc(Nc2c3ccccc3nc3ccccc23)cc1 | – | – | – | 4.68 | – | < 4.52 | < 4.52 | 46.9 | 15.4 | – | 7.2 | 39.3 | – | < 5.52 | < 4.52 | 4.68 | – | –
CC(=O)COc1ccc(Nc2c3ccccc3nc3ccccc23)cc1 | 1.3 | 19.2 | < 4.52 | < 4.52 | – | < 4.52 | < 4.52 | 35.8 | 21.6 | – | – | 6.6 | – | < 6.00 | 5.09 | – | – | –
COc1cccc2c(Oc3ccc(C(C)=O)cc3)c3ccccc3nc12 | – | – | – | 4.80 | < 5.00 | < 4.52 | 4.67 | 35.2 | – | < 4.52 | 34.3 | 19.7 | – | – | – | 4.71 | – | –
O=Cc1ccc(Oc2c3ccccc3nc3ccccc23)cc1 | – | – | – | 4.67 | – | < 4.52 | < 4.52 | 49.9 | 44.8 | < 4.52 | – | – | – | < 5.52 | – | 4.68 | 19.9 | 17.2
CC(=O)c1ccc(Oc2c3c(nc4ccccc24)CCCC3)cc1 | 13.3 | 5.7 | < 4.52 | < 4.52 | < 5.52 | < 4.52 | < 4.52 | 42.1 | 32.4 | < 4.52 | 48.9 | -3.5 | – | – | – | – | – | –
C[C@@H]1C[C@H]2[C@@H]3CCC4=CC(=O)C=C[C@]4(C)[C@@]3(F)[C@@H](O)C[C@]2(C)[C@@]1(O)C(=O)CO [DEXAMETHASONE] | – | – | – | – | 7.13 | – | – | – | – | 6.38 | – | – | – | – | – | – | – | –
CCN(CC)CCCC(C)Nc1c2ccc(Cl)cc2nc2ccc(OC)cc12 (stereo not drawn) [QUINACRINE] | – | – | 4.54 | 4.51 | – | – | – | – | – | – | – | – | – | – | – | – | – | –
CC(=O)c1ccc(Nc2c3ccccc3nc3ccccc23)cc1 | 34.7 | 15.7 | < 4.52 | < 4.52 | – | < 4.52 | 4.63 | 26.7 | – | – | 47.2 | – | – | 6.10 | < 5.00 | – | – | –
